Measured values from patent publication US20240174714A1, “TREATMENT OF SKIN DISORDERS” (priority 2021, published 2024).
Values after ≈ are worked out from the molar mass of the structure shown. Numbered stars: 1 amine (or outer) side, 2 acyl side, 3 side chain; on linkers, the order of the positions; unused ones are H or OH. Square brackets hold non-standard residues; d marks the D form. Peptide text beside a SMILES is read from it. * marks the point of attachment. X13 = O=C([C@H](Cc1nc2ccc(F)cc2s1)N[*:1])[*:2]; X14 = COc1ccc(C[C@H](N[*:1])C(=O)[*:2])cc1Cl; Ala(thiazol-2-yl) = N[C@@H](Cc1nccs1)C(=O)O; NH(1-CH2NMe2-cBu) = CN(C)CC1(N*)CCC1; Gly(octyl) = CCCCCCCC[C@H](N)C(=O)O; Oxazole4CO(2-Me) = Cc1nc(C(=O)*)co1; Benzoyl(4-F) = O=C(c1ccc(F)cc1)*; hCha = N[C@@H](CCC1CCCCC1)C(=O)O; X2 = C1CCN(CC2(N*)CCC2)CC1; NHCH2CH2NHMe = CNCCN*; Aib = CC(C)(N)C(=O)O; βAla = NCCC(=O)O

What was measured:
[1] = tested on: Staphylococcus aureus ATCC BAA-1556, USA300 MRSA; experiment: microbe, parasite or virus in culture; assay type: cell-based; conditions: ATCC BAA-1556
Description: Pre-formulated compound solution was diluted in 100% DMSO to prepare a 1.6 mg/mL working stock solution. […] The concentration range was 0.032 to 32 μg/mL.

[2] = tested on: Staphylococcus aureus ATCC 43300, MRSA; assay type: cell-based; conditions: ATCC 43300, 18 h
Description: The antibacterial activity of inventive compounds was evaluated in duplicate in a further Minimum Inhibitory Concentration (MIC) assay.
Bacteria were cultured in Cation-adjusted Mueller Hinton broth (CAMHB) at 37° C. overnight. A sample of each culture was then diluted 40-fold in fresh broth and incubated at 37° C. for 1.5-3 h. The resultant mid-log phase cultures were diluted (CFU/mL measured by OD600), then added to each well of the compound containing plates, giving a cell density of 5×10^5 CFU/mL and a total volume of 50 μL. All the plates were covered and incubated at 37° C. for 18 h without shaking.
Samples were prepared in DMSO and serially diluted 2 fold 8 times. Each sample concentration was prepared in 384-well plates, non-binding surface plate (NBS; Corning 3640) for the bacterial strain ATCC 43300, MRSA. The final DMSO concentration was at a maximum of 0.5%.
Inhibition of bacterial growth was determined measuring absorbance at 600 nm (OD600), using a Tecan M1000 Pro monochromator plate reader. The percentage of growth inhibition was calculated for each well, using the negative control (media only) and positive control (bacteria without inhibitors) on the same plate as references. […] Vancomycin was used as positive bacterial inhibitor standards.

[3] = Cytotoxicity assay (Alamar Blue) on L6-cells; assay type: cell-based, rat; conditions: rat
Description: Tests were done in triplicate.
The plates were incubated for additional 2 h.

[4] = tested on: axenic Leishmania donovani MHOM-ET-67/L82 amastigotes; experiment: In vitro antiprotozoal assay, axenic amastigotes; assay type: cell-based; conditions: axenic amastigotes; read-out: L.don.ax. IC50
Description: (§1) The testing of the inventive compounds against Leishmania donovani (strain MHOM/ET/67/L82) was performed in 96 well plates at concentrations in serial dilutions. Tests were done in triplicate.

[5] = tested on: intracellular Leishmania donovani MHOM-ET-67/L82 amastigotes; experiment: In vitro antiprotozoal assay, intracellular amastigotes; assay type: cell-based; conditions: intracellular amastigotes; read-out: L.don.InMac IC50
Description: as §1

Structure (SMILES)	MIC [1] [µg/mL]	MIC [2] [µg/mL]	IC50 [4] [nM]	IC50 at 68 h [3] [nM]	IC50 [5] [nM]
Cc1nc(C(=O)N2CCCC2C(=O)N[C@@H](CCC2CCCCC2)C(=O)N[C@@H](CC(C)C)C(=O)NC(C)(C)C(=O)N[C@@H](CC(C)C)C(=O)N[C@@H](CC(C)C)C(=O)NC(C)(C)C(=O)NC(C)(C)C(=O)NCCC(=O)NCCN)co1 (stereo in doubt) [Compound 7192, (2S)-N-(1-{[(1S)-1-{[(1S)-1-[(1-{[1-({2-[(2-aminoethyl)carbamoyl]ethyl}carbamoyl)-1-methylethyl]carbamoyl}-1-methylethyl)carbamoyl]-3-methylbutyl]carbamoyl}-3-methylbutyl]carbamoyl}-1-methylethyl)-2-[(2S)-4-cyclohexyl-2-{[(2S)-1-(2-methyl-1,3-oxazole-4-carbonyl)pyrrolidin-2-yl]formamido}butanamido]-4-methylpentanamide]	16 (≈ 14.6 µM)	8 (≈ 7.28 µM)			
Cc1nc(C(=O)N2CCC[C@H]2C(=O)N[C@@H](CCC2CCCCC2)C(=O)N[C@@H](CC(C)C)C(=O)NC(C)(C)C(=O)N[C@@H](CC(C)C)C(=O)N[C@@H](CC(C)C)C(=O)NC(C)(C)C(=O)NC(C)(C)C(=O)NCCC(=O)NC2(CN3CCCCC3)CCC2)co1 [Compound 6483, (2S)-2-[(2S)-4-cyclohexyl-2-{[(2S)-1-(2-methyl-1,3-oxazole-4-carbonyl)pyrrolidin-2-yl]formamido}butanamido]-4-methyl-N-(1-methyl-1-{[(1S)-3-methyl-1-{[(1S)-3-methyl-1-({1-methyl-1-[(1-methyl-1-{[2-({1-[(piperidin-1-yl)methyl]cyclobutyl}carbamoyl)ethyl]carbamoyl}ethyl)carbamoyl]ethyl}carbamoyl)butyl]carbamyl}butyl]carbamoyl}ethyl)pentanamide] ({Oxazole4CO(2-Me)}-P[hCha]L[Aib]LL[Aib][Aib][βAla]-X2)	8 (≈ 6.62 µM)	8 (≈ 6.62 µM)	4.1	486	
Cc1nc(C(=O)N2CCC[C@H]2C(=O)N[C@@H](Cc2c[nH]c3ccccc23)C(=O)N[C@@H](CC(C)C)C(=O)NC(C)(C)C(=O)N[C@@H](CC(C)C)C(=O)N[C@@H](CC(C)C)C(=O)NC(C)(C)C(=O)NC(C)(C)C(=O)NCCC(=O)NC2(CN(C)C)CCC2)co1 [Compound 6779, (2S)-N-(1-{[(1S)-1-{[(1S)-1-({1-[(1-{[2-({1-[(dimethylamino)methyl]cyclobutyl}carbamoyl)ethyl]carbamoyl}-1-methylethyl)carbamoyl]-1-methylethyl}carbamoyl)-3-methylbutyl]carbamoyl}-3-methylbutyl]carbamoyl}-1-methylethyl)-2-[(2S)-3-(1H-indol-3-yl)-2-{[(2S)-1-(2-methyl-1,3-oxazole-4-carbonyl)pyrrolidin-2-yl]formamido}propanamido]-4-methylpentanamide] (HELM PEPTIDE1{[Cc1nc(C(=O)[*:2])co1].P.W.L.[Aib].L.L.[Aib].[Aib].[bAla].[CN(C)CC1(N[*:1])CCC1]}$$$$V2.0)		8 (≈ 6.74 µM)	27	6680	203
CCCCCCCC[C@H](NC(=O)[C@@H]1CCCN1C(=O)c1coc(C)n1)C(=O)N[C@@H](CC(C)C)C(=O)NC(C)(C)C(=O)N[C@@H](CC(C)C)C(=O)N[C@@H](CC(C)C)C(=O)NC(C)(C)C(=O)NC(C)(C)C(=O)NCCC(=O)NCCNC [Compound 7058, (2S)-2-{[(2S)-1-(2-methyl-1,3-oxazole-4-carbonyl)pyrrolidin-2-yl]formamido}-N-[(1S)-3-methyl-1-[(1-methyl-1-{[(1S)-3-methyl-1-{[(1S)-3-methyl-1-{[1-methyl-1-({1-methyl-1-[(2-{[2-(methylamino)ethyl]carbamoyl}ethyl)carbamoyl]ethyl}carbamoyl)ethyl]carbamoyl}butyl]carbamoyl}butyl]carbamoyl}ethyl)carbamoyl]butyl]decanamide] ({Oxazole4CO(2-Me)}-P[Gly(octyl)]L[Aib]LL[Aib][Aib][βAla]-NHCH2CH2NHMe)	4 (≈ 3.59 µM)		23.8	5040	2620

Second part, led by results:

MIC [1] [µg/mL]	MIC [2] [µg/mL]	IC50 [4] [nM]	Structure (SMILES)	IC50 at 68 h [3] [nM]	IC50 [5] [nM]
	32 (≈ 27.4 µM)		CC(C)C[C@H](NC(=O)[C@H](Cc1nccs1)NC(=O)[C@@H]1CCCN1C(=O)c1ccc(F)cc1)C(=O)NC(C)(C)C(=O)N[C@@H](CC(C)C)C(=O)N[C@@H](CC(C)C)C(=O)NC(C)(C)C(=O)NC(C)(C)C(=O)NCCC(=O)NC1(CN(C)C)CCC1 [Compound 7842, (2S)-N-(1-{[(1S)-1-{[(1S)-1-({1-[(1-{[2-({1-[(dimethylamino)methyl]cyclobutyl}carbamoyl)ethyl]carbamoyl}-1-methylethyl)carbamoyl]-1-methylethyl}carbamoyl)-3-methylbutyl]carbamoyl}-3-methylbutyl]carbamoyl}-1-methylethyl)-2-[(2S)-2-{[(2S)-1-(4-fluorobenzoyl)pyrrolidin-2-yl]formamido}-3-(1,3-thiazol-2-yl)propanamido]-4-methylpentanamide] ({Benzoyl(4-F)}-P[Ala(thiazol-2-yl)]L[Aib]LL[Aib][Aib][βAla]-{NH(1-CH2NMe2-cBu)})		
	4 (≈ 3.27 µM)		COc1ccc(C[C@H](NC(=O)[C@@H]2CCCN2C(=O)c2ccc(F)cc2)C(=O)N[C@@H](CC(C)C)C(=O)NC(C)(C)C(=O)N[C@@H](CC(C)C)C(=O)N[C@@H](CC(C)C)C(=O)NC(C)(C)C(=O)NC(C)(C)C(=O)NCCC(=O)NC2(CN(C)C)CCC2)cc1Cl [Compound 7846, (2S)-2-[(2S)-3-(3-chloro-4-methoxyphenyl)-2-{[(2S)-1-(4-fluorobenzoyl)pyrrolidin-2-yl]formamido}propanamido]-N-(1-{[(1S)-1-{[(1S)-1-({1-[(1-{[2-({1-[(dimethylamino)methyl]cyclobutyl}carbamoyl)ethyl]carbamoyl}-1-methylethyl)carbamoyl]-1-methylethyl}carbamoyl)-3-methylbutyl]carbamoyl}-3-methylbutyl]carbamoyl}-1-methylethyl)-4-methylpentanamide] ({Benzoyl(4-F)}-P[X14]L[Aib]LL[Aib][Aib][βAla]-{NH(1-CH2NMe2-cBu)})		
	4 (≈ 3.24 µM)		CC(C)C[C@H](NC(=O)[C@H](Cc1nc2ccc(F)cc2s1)NC(=O)[C@@H]1CCCN1C(=O)c1ccc(F)cc1)C(=O)NC(C)(C)C(=O)N[C@@H](CC(C)C)C(=O)N[C@@H](CC(C)C)C(=O)NC(C)(C)C(=O)NC(C)(C)C(=O)NCCC(=O)NC1(CN(C)C)CCC1 [Compound 7848, (2S)-N-(1-{[(1S)-1-{[(1S)-1-({1-[(1-{[2-({1-[(dimethylamino)methyl]cyclobutyl}carbamoyl)ethyl]carbamoyl}-1-methylethyl)carbamoyl]-1-methylethyl}carbamoyl)-3-methylbutyl]carbamoyl}-3-methylbutyl]carbamoyl}-1-methylethyl)-2-[(2S)-3-(6-fluoro-1,3-benzothiazol-2-yl)-2-{[(2S)-1-(4-fluorobenzoyl)pyrrolidin-2-yl]formamido}propanamido]-4-methylpentanamide] ({Benzoyl(4-F)}-P[X13]L[Aib]LL[Aib][Aib][βAla]-{NH(1-CH2NMe2-cBu)})		
